The target of experiment [1] is T1, SMO (Homo sapiens, UniProt Q99835).
T1 construct: expressed in transfected cells; host or cells: HEK293
Briefly: Smoothened (SMO) binding fluorescence polarisation assay (BODIPY-cyclopamine competition). The conditions noted are these: SMO binding FP assay versus C3H10T1/2 cellular assay. As for the experimental part:
Standard Protocol for Smoothened (SMO) Binding Fluorescence Polarisation Assay.
The assay measures the ability of the test compounds to compete with a fluorescently-labelled version of the known ligand, cyclopamine, for binding to SMO. The fluorescent tag used is BODIPY (boron dipyrromethene).
An aliquot of a membrane preparation from a SMO-over-expressing HEK293 cell line is diluted to protein concentration of 0.117 mg/ml in assay buffer (25 mM HEPES, 2 mM EDTA, 0.05% γ-globulin, 0.01% pluronic acid pH7.4, plus protease Inhibitor cocktail). 8.5 μl of the membrane suspension is added to each well of a black, low volume 384 well microtitre plate.
Test compounds are added in a seven point dilution range to the wells containing the membrane preparation. The final DMSO solvent concentration in the wells is maintained at 0.3%. 6.5 μl of a 6.9 nM BODIPY-cyclopamine solution is added to each of the wells (final assay concentration 3 nM).
The plate is sealed and stored in the dark at room temperature for 24 hours prior to measurement of the fluorescence polarisation signal on a Perkin Elmer Envision multi-label reader.
Table 4 below details the ratio of SMO binding compared to the potency in the C3H10T1/2 cellular assay. The small ratio between SMO binding and potency for vismodegib is considered to be reflective of the fact vismodegib acts mainly through inhibition of the SMO protein. The larger ratios for the compound of the invention are considered to be reflective of alternate actions outside of direct SMO inhibition.
A general note: Polarisation of emitted light reports the rotation of a fluorescent probe.

The subject of experiment [2] is C3H10T1/2 cells. Briefly: C3H assay: differentiation of C3H10T1/2 cells by mSHH, measurement of alkaline phosphatase. Type of experiment: cell-based, mouse. The conditions noted are these: Mus musculus, C3H 10T1/2; C3H10T1/2 cells stimulated with mSHH for 72 hours; alkaline phosphatase activity; read-out: IC50 Ranges.

Bounds are passed on as bounds.

T1 sequence (Q99835 28-787): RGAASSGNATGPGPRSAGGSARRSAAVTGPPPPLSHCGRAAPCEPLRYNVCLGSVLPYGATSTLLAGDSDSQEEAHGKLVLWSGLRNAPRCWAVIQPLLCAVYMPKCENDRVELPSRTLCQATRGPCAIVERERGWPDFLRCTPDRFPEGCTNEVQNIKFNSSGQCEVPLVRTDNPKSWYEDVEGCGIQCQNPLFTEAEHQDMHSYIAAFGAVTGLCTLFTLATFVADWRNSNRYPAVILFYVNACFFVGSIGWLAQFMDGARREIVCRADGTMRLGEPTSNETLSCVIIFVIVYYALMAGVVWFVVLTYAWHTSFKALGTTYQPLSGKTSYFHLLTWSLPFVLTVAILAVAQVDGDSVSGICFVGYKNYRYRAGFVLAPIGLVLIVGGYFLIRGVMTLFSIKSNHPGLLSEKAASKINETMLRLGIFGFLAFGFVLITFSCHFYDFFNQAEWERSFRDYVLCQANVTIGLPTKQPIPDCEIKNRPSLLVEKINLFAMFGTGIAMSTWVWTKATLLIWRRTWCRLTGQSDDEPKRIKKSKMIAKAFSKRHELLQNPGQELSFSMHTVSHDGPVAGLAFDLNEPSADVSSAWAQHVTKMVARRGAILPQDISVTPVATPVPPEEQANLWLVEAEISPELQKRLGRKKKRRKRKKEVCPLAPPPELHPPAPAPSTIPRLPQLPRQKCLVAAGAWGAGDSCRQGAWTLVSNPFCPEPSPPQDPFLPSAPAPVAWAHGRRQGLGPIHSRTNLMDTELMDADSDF

As for `COc1cnc2[nH]cc(C3CCN(S(=O)(=O)C4CCN(C(=O)OC(C)(C)C)CC4)CC3)c2c1` [Compound 115, tert-butyl 4-[4-(5-methoxy-1H-pyrrolo[2,3-b]pyridin-3-yl)piperidin-1-yl]sulfonylpiper-idine-1-carboxylate], in experiment [1], the “Ratio of potency in SMO binding assay to potency in C3H10T1/2 cellular assay” value (shortened to “Ratio of potency in SMO binding assay”) is on record as 20. In experiment [2], the IC50 was in the range of 100 to 1000 nM.

On to `Cn1cc(-c2cnc3[nH]cc(C4CCN(S(=O)(=O)C5CN(C(=O)OC(C)(C)C)C5)CC4)c3c2)cn1` [Compound 122, tert-butyl 3-[4-[5-(1-methylpyrazol-4-yl)-1H-pyrrolo [2,3-b]pyridin-3-yl]piperidin-1-yl]sulfonylaze-tidine-1-carboxylate], for which the “Ratio of potency in SMO binding assay” value in experiment [1] is greater than 55. Further, the IC50 in experiment [2] was in the range of 100 to 1000 nM.

For the compound `CC(C)(C)OC(=O)N1CC(S(=O)(=O)N2CCC(c3coc4cccnc34)CC2)C1` [Compound 131, tert-Butyl 3-[(4-furo[3,2-b]pyridin-3-yl-1-piperidyl)sulfonyl]azetidine-1-carboxylate], the “Ratio of potency in SMO binding assay” value in experiment [1] is reported as 84. In addition, in experiment [2], the IC50 was in the range of 10 to 100 nM.

On to `O=C(OC[C@H]1CCCO1)N1CC(S(=O)(=O)N2CCC(c3c[nH]c4ncccc34)CC2)C1` [Compound 162, [(2R)-oxolan-2-yl]methyl 3-[4-(1H-pyrrolo[2,3-b]pyridin-3-yl)piperidin-1-yl]sulfonylaze-tidine-1-carboxylate], for which the “Ratio of potency in SMO binding assay” value in experiment [1] was 20. Moreover, in experiment [2], the 50% inhibitory concentration (IC50) is 10 to 100 nM.

Regarding `CC(C)(C)OC(=O)N1CC(S(=O)(=O)N2CC=C(c3c[nH]c4ncccc34)CC2)C1` [Compound 228, tert-butyl 3-[[4-(1H-pyrrolo[2,3-b]pyridin-3-yl)-3,6-dihydro-2H-pyridin-1-yl]sulfonyl] azetidine-1-carboxylate], in experiment [1], the “Ratio of potency in SMO binding assay” value is reported as 20. Also, in experiment [2], the IC50 was in the range of 100 to 1000 nM.

For the compound `Cc1ccc(S(=O)(=O)n2ccc3c(C4=CCN(S(=O)(=O)C5CCN(C(=O)OC(C)(C)C)CC5)CC4)ncnc32)cc1` [Compound 239, tert-butyl 4-[[4-[7-(4-methylphenyl)sulfonylpyrrolo[2,3-d]pyrimidin-4-yl]-3,6-dihydro-2H-pyridin-1-yl]sulfonyl] piperidine-1-carboxylate], in experiment [1], the “Ratio of potency in SMO binding assay” value is reported as greater than 37. For the same compound, the IC50 in experiment [2] lay within 100 to 1000 nM.

Consider `CC1(C)COCN1C(=O)N1CC(S(=O)(=O)N2CCC(c3c[nH]c4ncccc34)CC2)C1` [Compound 256, (4,4-dimethyl-1,3-oxazolidin-3-yl)-[3-[4-(1H-pyrrolo[2,3-b]pyridin-3-yl)piperidin-1-yl]sulfonylaze-tidin-1-yl]methanone], for which, in experiment [1], the “Ratio of potency in SMO binding assay” value is listed as 2.7. Further, the IC50 in experiment [2] was in the range of 10 to 100 nM.

For the compound `COC(=O)[C@H]1C[C@H](S(=O)(=O)N2CCC(c3c[nH]c4ncccc34)CC2)C1` [Compound 274, methyl trans-3-[4-(1H-pyrrolo[2,3-b]pyridin-3-yl)piperidin-1-yl]sulfonylcycl obutane-1-carboxylate], in experiment [1], the “Ratio of potency in SMO binding assay” value is given as greater than 10. In experiment [2], the IC50 was in the range of 100 to 1000 nM.

As for `Cc1noc(C)c1CNC(=O)C1CC(S(=O)(=O)N2CCC(c3c[nH]c4ncccc34)CC2)C1` (centres unmarked) [Compound 284, N-[(3,5-dimethyl-1,2-oxazol-4-yl)methyl]-3-[4-(1H-pyrrolo [2,3-b]pyridin-3-yl)piperidin-1-yl]sulfonylcycl obutane-1-carboxamide], the “Ratio of potency in SMO binding assay” value in experiment [1] amounted to 2.3. Further, the half-maximal inhibitory concentration (IC50) in experiment [2] was in the range of 100 to 1000 nM.

For the compound `Cc1noc(C)c1NC(=O)C1CC(S(=O)(=O)N2CCC(c3c[nH]c4ncccc34)CC2)C1` (centres unmarked) [Compound 285, N-(3,5-dimethyl-1,2-oxazol-4-yl)-3-[4-(1H-pyrrolo [2,3-b]pyridin-3-yl)piperidin-1-yl]sulfonylcycl obutane-1-carboxamide], the “Ratio of potency in SMO binding assay” value in experiment [1] was 2.9. Further, in experiment [2], the half-inhibitory concentration (IC50) lay within 10 to 100 nM.

Consider `O=C(NCCS(=O)(=O)N1CCC(c2c[nH]c3ncccc23)CC1)OC1CCCCC1` [Compound 292, cyclohexyl N-[2-[4-(1H-pyrrolo-[2,3-b]pyridin-3-yl)piperidin-1-yl]sulfonylethyl] carbamate], for which, in experiment [1], the “Ratio of potency in SMO binding assay” value was 4.3. Further, the half-inhibitory concentration (IC50) in experiment [2] was in the range of 100 to 1000 nM.

For the compound `Cc1noc(C)c1NC(=O)N1CC(S(=O)(=O)N2CCC(c3nc4ccccc4s3)CC2)C1` [Compound 294, 3-[4-(1,3-benzothiazol-2-yl)piperidin-1-yl]sulfonyl-N-(3,5-dimethyl-1,2-oxazol-4-yl)azetidine-1-carboxamide], the “Ratio of potency in SMO binding assay” value in experiment [1] is reported as 5.0. Moreover, the IC50 in experiment [2] lay within 100 to 1000 nM.

For `O=C([C@H]1C[C@@H](S(=O)(=O)N2CCC(c3c[nH]c4ncccc34)CC2)C1)N1CCOCC1` [Compound 296, cis-morpholin-4-yl-[3-[4-(1H-pyrrolo[2,3-b]pyridin-3-yl)piperidin-1-yl]sulfonylcyclobutyl] methanone], the “Ratio of potency in SMO binding assay” value in experiment [1] is on record as 3.8. Besides, in experiment [2], the half-inhibitory concentration (IC50) was 100 to 1000 nM.

Take `O=C(NC1(C(F)(F)F)CC1)[C@H]1C[C@H](S(=O)(=O)N2CCC(c3c[nH]c4ncccc34)CC2)C1` [Compound 298, trans-3-[4-(1H-pyrrolo[2,3-b]pyridin-3-yl)piperidin-1-yl]sulfonyl-N-[1-(trifluoromethyl)cyclopropyl] cyclobutane-1-carboxamide]: the “Ratio of potency in SMO binding assay” value in experiment [1] is 4.9. Further, the IC50 in experiment [2] lay in the range of 100 to 1000 nM.

As for `O=C([C@H]1C[C@H](S(=O)(=O)N2CCC(c3c[nH]c4ncccc34)CC2)C1)N1CCOCC1` [Compound 308, trans-morpholin-4-yl-[3-[4-(1H-pyrrolo [2,3-b]pyridin-3-yl)piperidin-1-yl]sulfonyl-cyclobutyl] methanone], in experiment [1], the “Ratio of potency in SMO binding assay” value was found to be 4.8. In addition, the IC50 in experiment [2] lay in the range of 100 to 1000 nM.

As to `O=S(=O)(C1CN(CC2(C(F)(F)F)CC2)C1)N1CCC(c2c[nH]c3ncccc23)CC1` [Compound 313, 3-[1-[1-[[1-(trifluoromethyl)cyclopropyl]methyl]azetidin-3-yl]sulfonylpiperidin-4-yl]-1H-pyrrolo[2,3-b]pyridine], in experiment [1], the “Ratio of potency in SMO binding assay” value was found to be 2.7. Besides, in experiment [2], the IC50 is 100 to 1000 nM.

Consider `CC(C)(C)C(=O)CN1CC(S(=O)(=O)N2CCC(c3c[nH]c4ncccc34)CC2)C1` [Compound 314, 3,3-dimethyl-1-[3-[4-(1H-pyrrolo[2,3-b]pyridin-3-yl)piperidin-1-yl]sulfonylaze-tidin-1-yl]butan-2-one], for which the “Ratio of potency in SMO binding assay” value in experiment [1] is 6.7. The IC50 in experiment [2] lay in the range of 10 to 100 nM.

In the case of `CC(C)(C)NC(=O)N1CC(S(=O)(=O)N2CCC(c3ccc(Cl)cc3)CC2)C1` [Compound 319, N-tert-butyl-3-[4-(4-chlorophenyl)piperidin-1-yl]sulfonylaze-tidine-1-carboxamide], the “Ratio of potency in SMO binding assay” value in experiment [1] is reported as 2.9. For the same compound, the half-inhibitory concentration (IC50) in experiment [2] lay in the range of 10 to 100 nM.

As for `C[C@@H](NC(=O)N1CC(S(=O)(=O)N2CCC(c3coc4cccnc34)CC2)C1)C(F)(F)F` [Compound 328, 3-(4-furo[3,2-b]pyridin-3-ylpiperidin-1-yl)sulfonyl-N-[(2R)-1,1,1-trifluoropropan-2-yl]azetidine-1-carboxamide], the “Ratio of potency in SMO binding assay” value in experiment [1] was 3.2. For the same compound, the IC50 in experiment [2] was in the range of 10 to 100 nM.

The term IC50 denotes the concentration needed to halve the response being measured.

Values taken from patent publication US10961238B2, “Modulators of hedgehog (Hh) signaling pathway” (E-THERAPEUTICS PLC, priority 2016, dated 2021).
